Read-outs that look alike come from different tables or passages of the source.
Biological target: ROCK2 (Homo sapiens, UniProt O75116)
Assay: ROCK2 kinase inhibition assay (LABCHIP 3000 Reader, FITC peptide substrate);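 note: rho kinase reaction read by separating phosphorylated from unphosphorylated peptide on chip, with inhibition of kinase activity computed per concentration across a dose-response series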
[1] = read-out: ROCK2 Activity (ROCK2 IC50), 5 μM ATP, 1.5 μM peptide substrate, pH 7.5

Sequence of ROCK2 (O75116 whole entry, species assumed): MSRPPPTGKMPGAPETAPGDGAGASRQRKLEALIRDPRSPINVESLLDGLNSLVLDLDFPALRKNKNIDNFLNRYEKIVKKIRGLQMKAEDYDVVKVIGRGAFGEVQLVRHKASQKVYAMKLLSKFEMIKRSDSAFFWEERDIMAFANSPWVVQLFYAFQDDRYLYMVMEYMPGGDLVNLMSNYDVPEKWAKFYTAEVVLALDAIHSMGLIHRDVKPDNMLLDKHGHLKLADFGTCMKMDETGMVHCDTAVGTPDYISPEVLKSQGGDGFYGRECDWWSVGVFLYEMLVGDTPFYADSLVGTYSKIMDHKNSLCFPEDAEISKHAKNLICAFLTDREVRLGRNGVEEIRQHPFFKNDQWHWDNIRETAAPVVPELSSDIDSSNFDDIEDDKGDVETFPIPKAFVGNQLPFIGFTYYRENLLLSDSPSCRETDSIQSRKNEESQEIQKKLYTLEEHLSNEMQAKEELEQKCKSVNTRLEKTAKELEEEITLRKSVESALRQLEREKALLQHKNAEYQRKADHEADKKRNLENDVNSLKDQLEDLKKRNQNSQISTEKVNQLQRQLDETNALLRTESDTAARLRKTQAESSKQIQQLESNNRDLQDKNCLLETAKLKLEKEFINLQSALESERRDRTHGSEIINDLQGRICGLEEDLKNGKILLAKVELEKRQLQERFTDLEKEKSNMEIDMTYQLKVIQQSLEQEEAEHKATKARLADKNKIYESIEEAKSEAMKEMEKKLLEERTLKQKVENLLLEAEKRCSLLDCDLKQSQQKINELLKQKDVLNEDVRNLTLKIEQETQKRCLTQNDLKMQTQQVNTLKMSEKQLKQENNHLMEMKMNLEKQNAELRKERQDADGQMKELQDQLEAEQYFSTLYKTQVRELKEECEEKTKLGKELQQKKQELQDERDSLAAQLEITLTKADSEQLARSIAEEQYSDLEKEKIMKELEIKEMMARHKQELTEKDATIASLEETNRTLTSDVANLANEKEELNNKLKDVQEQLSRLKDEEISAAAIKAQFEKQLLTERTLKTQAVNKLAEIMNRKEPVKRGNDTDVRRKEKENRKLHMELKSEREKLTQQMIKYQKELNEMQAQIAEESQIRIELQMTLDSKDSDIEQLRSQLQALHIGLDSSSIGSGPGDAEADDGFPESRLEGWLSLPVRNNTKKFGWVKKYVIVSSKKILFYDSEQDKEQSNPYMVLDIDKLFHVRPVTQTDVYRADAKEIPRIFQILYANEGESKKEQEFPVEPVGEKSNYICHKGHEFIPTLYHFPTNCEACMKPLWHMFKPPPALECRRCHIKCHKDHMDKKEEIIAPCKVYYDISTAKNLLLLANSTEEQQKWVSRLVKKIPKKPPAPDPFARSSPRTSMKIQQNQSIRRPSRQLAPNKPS

SMILES | IC50 [1] [nM] | IC50 [nM]
NC(=O)c1cccnc1OC1CC2(CC(NC(=O)c3nc(C(F)(F)F)n4cc(OCc5ccccc5)ccc34)C2)C1 [Example 431, 6-(benzyloxy)-N-((aR)-6-((3-carbamoylpyridin-2-yl)oxy)spiro[3.3]heptan-2-yl)-3-(trifluoromethyl)imidazo[1,5-a]pyridine-1-carboxamide] | 5 to 50 | 
NC(=O)c1cccnc1OC1CC2(CC(NC(=O)c3nc(C(F)(F)F)n4cc(OS(=O)(=O)C(F)(F)F)ccc34)C2)C1 [Example 432, 1-(((aR)-6-((3-carbamoylpyridin-2-yl)oxy)spiro[3.3]heptan-2-yl)carbamoyl)-3-(trifluoromethyl)imidazo[1,5-a]pyridin-6-yl Trifluoromethanesulfonate] | 5 to 50 | 
Cn1cc(-c2ccc3c(C(=O)NC4CC5(C4)CC(Oc4ncccc4C(N)=O)C5)nc(C(F)(F)F)n3c2)cn1 [Example 433, N-((aR)-6-((3-carbamoylpyridin-2-yl)oxy)spiro[3.3]heptan-2-yl)-6-(1-methyl-1H-pyrazol-4-yl)-3-(trifluoromethyl)imidazo[1,5-a]pyridine-1-carboxamide] | < 5 | 
CC(C)(O)COc1ccc2c(C(=O)NC3CC4(C3)CC(Oc3ncccc3C(N)=O)C4)nc(C(F)(F)F)n2c1 [Example 434, N-((aR)-6-((3-carbamoylpyridin-2-yl)oxy)spiro[3.3]heptan-2-yl)-6-(2-hydroxy-2-methylpropoxy)-3-(trifluoromethyl)imidazo[1,5-a]pyridine-1-carboxamide] | 5 to 50 | 
NC(=O)c1cccnc1OC1CC2(CC(NC(=O)c3nc(C(F)F)n4cc(OCc5ccccc5)ccc34)C2)C1 [Example 435, 6-(benzyloxy)-N-((aR)-6-((3-carbamoylpyridin-2-yl)oxy)spiro[3.3]heptan-2-yl)-3-(difluoromethyl)imidazo[1,5-a]pyridine-1-carboxamide] | < 5 | 
Cc1ncc(-c2ccc3c(C(=O)NC4CC5(C4)CC(Oc4ncccc4C(N)=O)C5)nc(C(F)F)n3c2)s1 [Example 436, N-((aR)-6-((3-carbamoylpyridin-2-yl)oxy)spiro[3.3]heptan-2-yl)-3-(difluoromethyl)-6-(2-methylthiazol-5-yl)imidazo[1,5-a]pyridine-1-carboxamide] |  | < 5
Cn1cncc1-c1ccc2c(C(=O)NC3CC4(C3)CC(Oc3ncccc3C(N)=O)C4)nc(C(F)F)n2c1 [Example 437, N-((aR)-6-((3-carbamoylpyridin-2-yl)oxy)spiro[3.3]heptan-2-yl)-3-(difluoromethyl)-6-(1-methyl-1H-imidazol-5-yl)imidazo[1,5-a]pyridine-1-carboxamide] | 5 to 50 | 
Cn1cc(-c2ccc3c(C(=O)NC4CC5(C4)CC(Oc4ncccc4C(N)=O)C5)nc(C(F)F)n3c2)c(C(F)(F)F)n1 [Example 438, N-((aR)-6-((3-carbamoylpyridin-2-yl)oxy)spiro[3.3]heptan-2-yl)-3-(difluoromethyl)-6-(1-methyl-3-(trifluoromethyl)-1H-pyrazol-4-yl)imidazo[1,5-a]pyridine-1-carboxamide] |  | 5 to 50
Cn1cc(-c2ccc3c(C(=O)NC4CC5(C4)CC(Oc4ncccc4C(N)=O)C5)nc(C(F)F)n3c2)cn1 [Example 439, N-((aR)-6-((3-carbamoylpyridin-2-yl)oxy)spiro[3.3]heptan-2-yl)-3-(difluoromethyl)-6-(1-methyl-1H-pyrazol-4-yl)imidazo[1,5-a]pyridine-1-carboxamide] | < 5 | 
NC(=O)c1cccnc1OC1CC2(CC(NC(=O)c3nc(C(F)F)n4cc(N5CCOCC5)ccc34)C2)C1 [Example 440, N-((aR)-6-((3-carbamoylpyridin-2-yl)oxy)spiro[3.3]heptan-2-yl)-3-(difluoromethyl)-6-morpholinoimidazo[1,5-a]pyridine-1-carboxamide] | < 5 | 
CC(C)(O)CCOc1ccc2c(C(=O)NC3CC4(C3)CC(Oc3ncccc3C(N)=O)C4)nc(C(F)F)n2c1 [Example 441, N-((aR)-6-((3-carbamoylpyridin-2-yl)oxy)spiro[3.3]heptan-2-yl)-3-(difluoromethyl)-6-(3-hydroxy-3-methylbutoxy)imidazo[1,5-a]pyridine-1-carboxamide] | < 5 | 

From patent US10829501B2 (BRISTOL-MYERS SQUIBB COMPANY, priority 2016, dated 2020)
